The nature of data set [1]: Hygroscopicity by dynamic moisture sorption (DVS). It is filed as physicochemical. As to conditions: 80% relative humidity, 25° C. As to the method:
About 5 mg of powder sample was weighed and put in a dynamic moisture sorption instrument (DVS). The relative humidity range was set at from 0 to 95%, and the temperature was set at 25° C. The weight change of the samples under different environmental humidity conditions were recorded and used to compare the hygroscopicity of the material.

The nature of data set [2]: Chemical stability at 40° C./75% RH, hydroxytyrosol content by HPLC. It is filed as physicochemical. As to conditions: double-layer polyethylene bags; for content of hydroxytyrosol, Day 0: 0 d, initial content set as 100%; for content of hydroxytyrosol, Day 14: 14 d; for content of hydroxytyrosol, Day 14 / content of hydroxytyrosol, Day 30: % of initial content; for content of hydroxytyrosol, Day 30: 30 d. As to the method: An appropriate amount of powder sample was put in an accelerated stability chamber at 40° C./75% RH with the packaging condition of double-layer polyethylene bags, and the sample was taken at 0 d, 14 d, and 30 d. The content of hydroxytyrosol was determined by high performance liquid chromatography (the content was calculated by external standard method).

With “co-crystal of hydroxytyrosol and nicotinamide [Example 1]”, in data set [1], the “hygroscopicity (in words)” value is given as “basically non-hygroscopic” and the “hygroscopicity (weight change)” value was 0.39%. In addition, in data set [2], the “content of hydroxytyrosol, Day 0” value came to 100.0% and the “content of hydroxytyrosol, Day 14” value was found to be 99.7%.
As for `OCCc1ccc(O)c(O)c1` [Hydroxytyrosol itself, Hydroxytyrosol], the “hygroscopicity (weight change)” value in data set [1] was 16.9%. Further, in data set [2], the “content of hydroxytyrosol, Day 0” value was 100.0%; the “content of hydroxytyrosol, Day 14” value was found to be 98.8%; the “content of hydroxytyrosol, Day 30” value amounted to 92.3%. The “content of hydroxytyrosol, Day 30” value in data set [2] (listed as hydroxytyrosol itself) worked out at 92.3%.

These data come from US20240166604A1, “HYDROXYTYROSOL NICOTINAMIDE EUTECTIC CRYSTAL, AND PREPARATION METHOD THEREFOR AND COMPOSITION THEREOF” (COCRYSTAL TECHNOLOGY (JIAXING) CO., LTD., priority 2021, published 2024).
